Data as given in PubChem BioAssay (NCI).
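Briefly, cells in 96-well plates were exposed to five compound concentrations for 48 h, and endpoints were estimated by linear interpolation. Here, GI50 denotes the concentration required for 50% inhibition of growth. At the TGI there is no net growth.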

Tests used:
Assay in all cases: DTP human tumour cell line panel, 48 h
M14 melanoma = system: M14 melanoma
T-47D breast = system: T-47D breast
SK-MEL-5 melanoma = system: SK-MEL-5 melanoma
RXF 393 renal = system: RXF 393 renal
NCI-H460 lung = system: NCI-H460 lung
SK-OV-3 ovarian = system: SK-OV-3 ovarian
SF-268 CNS = system: SF-268 CNS
RPMI-8226 leukemia = system: RPMI-8226 leukemia
CCRF-CEM leukemia = system: CCRF-CEM leukemia
UACC-257 melanoma = system: UACC-257 melanoma

SMILES: COC(C)(C)[C@@H](O)[C@H](O)C[C@H](C)C1=C2CC[C@@H]3[C@@]4(C)CC[C@@H](OC(C)=O)C(C)(C)[C@@H]4C[C@@H](OC4OC(COC(C)=O)C(O)C(O)C4O)[C@@]3(C)[C@]2(C)CC1 (some centres not stated)
- GI50 (M14 melanoma): 12.4 µM
- TGI (M14 melanoma): 25.4 µM
- GI50 (T-47D breast): 12.6 µM
- TGI (T-47D breast): 25.6 µM
- GI50 (SK-MEL-5 melanoma): 14.4 µM
- TGI (SK-MEL-5 melanoma): 27.8 µM
- GI50 (RXF 393 renal): 6.96 µM
- TGI (RXF 393 renal): 19.5 µM
- GI50 (NCI-H460 lung): 9.06 µM
- TGI (NCI-H460 lung): 25.5 µM
- TGI (SK-OV-3 ovarian): 28.7 µM
- GI50 (SF-268 CNS): 10.3 µM
- TGI (SF-268 CNS): 25.9 µM
- GI50 (RPMI-8226 leukemia): 4.15 µM
- TGI (RPMI-8226 leukemia): 22.1 µM
- GI50 (CCRF-CEM leukemia): 5.34 µM
- TGI (CCRF-CEM leukemia): 19.9 µM
- GI50 (UACC-257 melanoma): 12.6 µM
- TGI (UACC-257 melanoma): 25.4 µM

SMILES: CN1C(=O)c2ccc3ccccc3c2C1=O
- TGI (M14 melanoma): > 100 µM
- TGI (T-47D breast): > 100 µM
- TGI (SK-MEL-5 melanoma): > 100 µM
- TGI (RXF 393 renal): 96.6 µM
- TGI (NCI-H460 lung): > 100 µM
- TGI (SK-OV-3 ovarian): > 100 µM
- TGI (SF-268 CNS): > 100 µM
- TGI (RPMI-8226 leukemia): > 100 µM
- TGI (CCRF-CEM leukemia): > 100 µM
- TGI (UACC-257 melanoma): > 100 µM

SMILES: COc1ccc([C@H](CC(=O)O)N2CCN(CCCc3ccc4c(n3)NCCC4)C2=O)cn1
- GI50 (M14 melanoma): > 100 µM
- TGI (M14 melanoma): > 100 µM
- GI50 (T-47D breast): 0.382 µM
- TGI (T-47D breast): 4.65 µM
- GI50 (SK-MEL-5 melanoma): 0.0501 µM
- TGI (SK-MEL-5 melanoma): 0.173 µM
- GI50 (RXF 393 renal): 0.136 µM
- TGI (RXF 393 renal): > 100 µM
- GI50 (NCI-H460 lung): 4.36 µM
- TGI (NCI-H460 lung): > 100 µM
- GI50 (SK-OV-3 ovarian): > 100 µM
- TGI (SK-OV-3 ovarian): > 100 µM
- GI50 (SF-268 CNS): 0.754 µM
- TGI (SF-268 CNS): > 100 µM
- GI50 (RPMI-8226 leukemia): > 100 µM
- TGI (RPMI-8226 leukemia): > 100 µM
- GI50 (CCRF-CEM leukemia): > 100 µM
- TGI (CCRF-CEM leukemia): > 100 µM
- TGI (UACC-257 melanoma): > 100 µM

SMILES: COc1ccc2c(c1)[n+](=O)c(C(=O)c1cccs1)c(C(F)(F)F)n2[O-]
- GI50 (M14 melanoma): 10.9 µM
- TGI (M14 melanoma): > 50 µM
- GI50 (T-47D breast): 5.26 µM
- TGI (T-47D breast): 29.8 µM
- GI50 (SK-MEL-5 melanoma): 1.23 µM
- TGI (SK-MEL-5 melanoma): 5.91 µM
- GI50 (RXF 393 renal): > 50 µM
- TGI (RXF 393 renal): > 50 µM
- GI50 (NCI-H460 lung): 1.68 µM
- TGI (NCI-H460 lung): 13.8 µM
- GI50 (SK-OV-3 ovarian): 6.41 µM
- TGI (SK-OV-3 ovarian): > 50 µM
- GI50 (SF-268 CNS): 3.94 µM
- TGI (SF-268 CNS): 27.4 µM
- GI50 (RPMI-8226 leukemia): 3.41 µM
- TGI (RPMI-8226 leukemia): > 50 µM
- GI50 (CCRF-CEM leukemia): 11 µM
- TGI (CCRF-CEM leukemia): > 50 µM
- GI50 (UACC-257 melanoma): 8.66 µM
- TGI (UACC-257 melanoma): 42 µM

SMILES: Cc1ccc(/C=C(\C#N)c2cc3ccccc3n2C)cc1
- GI50 (M14 melanoma): 0.268 µM
- TGI (M14 melanoma): > 100 µM
- GI50 (T-47D breast): 0.587 µM
- TGI (T-47D breast): > 100 µM
- GI50 (SK-MEL-5 melanoma): 0.647 µM
- TGI (SK-MEL-5 melanoma): > 100 µM
- GI50 (RXF 393 renal): 0.172 µM
- TGI (RXF 393 renal): 0.565 µM
- GI50 (NCI-H460 lung): 0.361 µM
- TGI (NCI-H460 lung): > 100 µM
- GI50 (SK-OV-3 ovarian): > 100 µM
- TGI (SK-OV-3 ovarian): > 100 µM
- GI50 (SF-268 CNS): 8.27 µM
- TGI (SF-268 CNS): > 100 µM
- GI50 (RPMI-8226 leukemia): 0.38 µM
- TGI (RPMI-8226 leukemia): > 100 µM
- GI50 (CCRF-CEM leukemia): 0.355 µM
- TGI (CCRF-CEM leukemia): > 100 µM
- GI50 (UACC-257 melanoma): > 100 µM
- TGI (UACC-257 melanoma): > 100 µM

SMILES: O=c1[nH]c(=O)n(C2CC(O)C(CO)O2)cc1Oc1ccccc1 (configuration not stated)
- TGI (M14 melanoma): > 100 µM
- TGI (T-47D breast): > 100 µM
- TGI (SK-MEL-5 melanoma): > 100 µM
- TGI (RXF 393 renal): > 100 µM
- TGI (NCI-H460 lung): > 100 µM
- TGI (SK-OV-3 ovarian): > 100 µM
- TGI (SF-268 CNS): > 100 µM
- TGI (RPMI-8226 leukemia): > 100 µM
- TGI (CCRF-CEM leukemia): > 100 µM
- TGI (UACC-257 melanoma): > 100 µM

SMILES: COc1cc2c3c(n(CCCN)c(=O)c2cc1OC)-c1ccc([N+](=O)[O-])cc1C3=O
- GI50 (M14 melanoma): 5.77 µM
- TGI (M14 melanoma): 19.4 µM
- GI50 (T-47D breast): 3.86 µM
- TGI (T-47D breast): 20.2 µM
- GI50 (SK-MEL-5 melanoma): 5.23 µM
- TGI (SK-MEL-5 melanoma): 19.5 µM
- GI50 (RXF 393 renal): 19.2 µM
- TGI (RXF 393 renal): 43.7 µM
- GI50 (NCI-H460 lung): 0.572 µM
- TGI (NCI-H460 lung): 2.35 µM
- GI50 (SK-OV-3 ovarian): 12.2 µM
- TGI (SK-OV-3 ovarian): 28.7 µM
- GI50 (SF-268 CNS): 7.74 µM
- TGI (SF-268 CNS): 24.4 µM
- GI50 (RPMI-8226 leukemia): 1.75 µM
- TGI (RPMI-8226 leukemia): 4.91 µM
- GI50 (CCRF-CEM leukemia): 0.15 µM
- TGI (CCRF-CEM leukemia): 2.73 µM
- GI50 (UACC-257 melanoma): 31 µM
- TGI (UACC-257 melanoma): > 100 µM

SMILES: CN(C)C(=O)Nc1nc2cc(Cl)c(Cl)cc2[nH]1
- GI50 (M14 melanoma): 0.603 µM
- GI50 (T-47D breast): 0.655 µM
- TGI (T-47D breast): > 100 µM
- GI50 (SK-MEL-5 melanoma): 0.441 µM
- TGI (SK-MEL-5 melanoma): > 100 µM
- GI50 (RXF 393 renal): 1.63 µM
- TGI (RXF 393 renal): > 28.7 µM
- GI50 (NCI-H460 lung): 0.44 µM
- TGI (NCI-H460 lung): 30 µM
- GI50 (SK-OV-3 ovarian): 1.09 µM
- TGI (SK-OV-3 ovarian): > 56.6 µM
- GI50 (SF-268 CNS): 2.89 µM
- TGI (SF-268 CNS): > 100 µM
- GI50 (RPMI-8226 leukemia): 1.37 µM
- TGI (RPMI-8226 leukemia): > 100 µM
- GI50 (CCRF-CEM leukemia): 0.953 µM
- TGI (CCRF-CEM leukemia): > 100 µM
- GI50 (UACC-257 melanoma): > 100 µM
- TGI (UACC-257 melanoma): > 100 µM

SMILES: CN(C)c1ccc(Nc2c3ccccc3nc3ccccc23)cc1
- GI50 (M14 melanoma): 1.22 µM
- TGI (M14 melanoma): 2.61 µM
- GI50 (T-47D breast): 1.56 µM
- TGI (T-47D breast): 4.01 µM
- GI50 (SK-MEL-5 melanoma): 1.03 µM
- TGI (SK-MEL-5 melanoma): 2.2 µM
- GI50 (RXF 393 renal): 1.21 µM
- TGI (RXF 393 renal): 2.61 µM
- GI50 (NCI-H460 lung): 0.367 µM
- TGI (NCI-H460 lung): 1.72 µM
- GI50 (SK-OV-3 ovarian): 1.27 µM
- TGI (SK-OV-3 ovarian): 3.77 µM
- GI50 (SF-268 CNS): 1.52 µM
- TGI (SF-268 CNS): 7.83 µM
- GI50 (RPMI-8226 leukemia): 0.984 µM
- TGI (RPMI-8226 leukemia): 3.9 µM
- GI50 (CCRF-CEM leukemia): 1.23 µM
- TGI (CCRF-CEM leukemia): 15.7 µM
- GI50 (UACC-257 melanoma): 0.987 µM
- TGI (UACC-257 melanoma): 2.65 µM

SMILES: CNC(=O)NCC1OC(n2cnc3c(NC(=O)Nc4ccccc4)ncnc32)C(O[Si](C)(C)C(C)(C)C)C1O[Si](C)(C)C(C)(C)C (configuration not stated)
- GI50 (M14 melanoma): 4.33 µM
- TGI (M14 melanoma): 18.5 µM
- GI50 (T-47D breast): 2.87 µM
- TGI (T-47D breast): 10.3 µM
- GI50 (SK-MEL-5 melanoma): 1.98 µM
- TGI (SK-MEL-5 melanoma): 4.75 µM
- GI50 (RXF 393 renal): 2.14 µM
- TGI (RXF 393 renal): 4.01 µM
- GI50 (NCI-H460 lung): 1.72 µM
- TGI (NCI-H460 lung): 3.49 µM
- GI50 (SK-OV-3 ovarian): 6.88 µM
- TGI (SK-OV-3 ovarian): > 100 µM
- GI50 (SF-268 CNS): 3.58 µM
- TGI (SF-268 CNS): 14 µM
- GI50 (RPMI-8226 leukemia): 3.27 µM
- TGI (RPMI-8226 leukemia): > 100 µM
- GI50 (CCRF-CEM leukemia): 3.59 µM
- TGI (CCRF-CEM leukemia): > 100 µM
- GI50 (UACC-257 melanoma): 3.78 µM
- TGI (UACC-257 melanoma): 20.2 µM

SMILES: CCCCCCCCCCCC1=NC(C)(C)CN1C(C)(C)CO
- GI50 (M14 melanoma): 1.79 µM
- TGI (M14 melanoma): 3.4 µM
- GI50 (T-47D breast): 2.05 µM
- TGI (T-47D breast): 5.31 µM
- GI50 (SK-MEL-5 melanoma): 1.79 µM
- TGI (SK-MEL-5 melanoma): 3.3 µM
- GI50 (RXF 393 renal): 2.26 µM
- TGI (RXF 393 renal): 4.48 µM
- GI50 (NCI-H460 lung): 1.55 µM
- TGI (NCI-H460 lung): 2.91 µM
- GI50 (SK-OV-3 ovarian): 3.8 µM
- TGI (SK-OV-3 ovarian): 12.4 µM
- GI50 (SF-268 CNS): 2.35 µM
- TGI (SF-268 CNS): 11.3 µM
- GI50 (RPMI-8226 leukemia): 2.49 µM
- TGI (RPMI-8226 leukemia): 5.83 µM
- GI50 (CCRF-CEM leukemia): 2.94 µM
- TGI (CCRF-CEM leukemia): 12.4 µM
- GI50 (UACC-257 melanoma): 1.65 µM
- TGI (UACC-257 melanoma): 3.28 µM
